Data published in publication PMC9925730, “Controlled sequential in situ self-assembly and disassembly of a fluorogenic cisplatin prodrug for cancer theranostics” (Nature Communications, 2023).
“And” between values parts separate entries of the source, which are not always exact repeats. Equal entries are not always repeated.

Experiments:
[1] = tested on: HeLa cells; experiment: NIR FL and PA bimodality imaging of cell pellets; assay type: cell-based, human; settings: for normalized FL of cell pellets (Fig. 3c): 30 min
[2] = tested on: ALP; experiment: Enzyme kinetics of P-CyPt towards ALP (Lineweaver-Burk); assay type: biochemical; settings: Supplementary Fig. 5b; for 1/v, mean: mean of 3 samples
[3] = target: T1, ALP (Bos taurus, UniProt P19111); experiment: NIR FL, PA and absorption signals of P-CyPt in solution in response to ALP; assay type: biochemical; settings: P-CyPt 10 μM; for normalized Abs. at 700 nm (Fig. 2j) / normalized Abs. at 750 nm (Fig. 2j) / normalized FL intensity at 710 nm (Fig. 2k) / normalized PA intensity at 700 nm (Fig. 2l) / normalized PA intensity at 750 nm (Fig. 2l): ALP 100 U/L 37 °C
T1 construct: Alkaline phosphatase from bovine; purchased Sigma-Aldrich; host or cells: bovine intestinal mucosa (tissue-derived)
Procedure: (§1) To monitor the NIR FL and PA imaging signals of P-CyPt in response to ALP, P-CyPt (10 μM) in Tris buffer (1 mL) was incubated with ALP (100 U/L) at 37 °C for 0, 5, 10, 15, 20, and 30 min. To monitor the NIR FL and PA imaging signals of Pt^IVNPs in response to GSH, P-CyPt (10 μM) in Tris buffer (1 mL) was first incubated with ALP (100 U/L) at 37 °C for 30 min and then incubated with 10 mM GSH at 37 °C for another 10, 20, 30, 40, 50, and 60 min. The NIR FL spectra of these solutions at each time point were acquired on a HORIBA Jobin Yvon Fluoromax-4 fluorescence spectrometer, with excitation at 680 nm. For PA imaging, the incubation solutions at each time point were loaded into a fine bore polythene tube ([…], 1.27 mm OD). The tubes were then sealed and immersed in water. The PA images at both 700 and 750 nm were acquired on the Vevo 2100 LAZR system (FUJIFILM VisualSonics).

[4] = tested on: orthotopic HepG2/Luc liver tumors; experiment: NIR FL imaging of orthotopic HepG2/Luc liver tumors in vivo; parameters: species or system mice
Procedure: (100 μM, in 200 μL saline). Whole body FL images of mice prior to (pre) and at 1 h, 2 h, 4 h, 8 h post injection of P-CyPt or […] acquired on the IVIS Lumina XR III imaging system, using a 660 nm excitation filter and a 750 ± 50 nm emission filter. Each experiment was conducted in three mice. The FL intensities were quantified by the region of interest (ROI) measurement using Living Image Software (4.5.2, PerkinElmer, MA, U.S.A). […] (500 μM, in 200 μL saline). The PA images of the s.c. HeLa tumors in mice prior to (pre), and at 1, 2, 4 h post injection were captured on the Vevo 2100 LAZR system (FUJIFILM VisualSonics), with excitation at 700 and 750 nm. The PA intensities were quantified by the equipped software.

[5] = tested on: s.c. HeLa tumors; experiment: Fluorescence imaging of varying sizes of s.c. HeLa tumors; assay type: in vivo, mice; settings: P-CyPt 100 μM, 200 μL i.v., 4 h
Procedure: page 21: Supplementary Figure 29. Fluorescence imaging of varying sizes of s.c. HeLa tumors in mice. (a) Representative fluorescence images of mice with s.c. HeLa tumors at a mean size of 3.8 ± 0.8, 22.1 ± 1.6, 46.4 ± 4.2, 75.9 ± 4.5 and 125.5 ± 12.7 mm3, respectively. […]) was i.v. injected into mice, and the whole-body fluorescence images were acquired at 0 and 4 h. Red arrows indicate the locations of tumors, and the black circle indicates the position chosen for the background in each mouse. (b) Calculated SBR in mice of different tumor sizes. […] Data denote mean ± s.d. (n = 3 independent animals). […] 21 (1 picture or pasted object on this page, not shown here)

[6] = NIR FL, PA and absorption signals of Pt^IVNPs in solution in response to GSH; settings: P-CyPt 10 μM
Procedure: as §1

[7] = HeLa, P-CyPt 10 μM 30 min then blank medium 3 h (Group II vs I)
[8] = ALP 30 min then GSH 10 mM 10 min (time 40)
[9] = ALP 30 min then GSH 10 mM 20 min (time 50)
[10] = ALP 30 min then GSH 10 mM 30 min (time 60)
[11] = ALP 30 min then GSH 10 mM 40 min (time 70)
[12] = ALP 30 min then GSH 10 mM 50 min (time 80)
[13] = ALP 30 min then GSH 10 mM 60 min (time 90)

T1 sequence (P19111 20-506 limits assumed): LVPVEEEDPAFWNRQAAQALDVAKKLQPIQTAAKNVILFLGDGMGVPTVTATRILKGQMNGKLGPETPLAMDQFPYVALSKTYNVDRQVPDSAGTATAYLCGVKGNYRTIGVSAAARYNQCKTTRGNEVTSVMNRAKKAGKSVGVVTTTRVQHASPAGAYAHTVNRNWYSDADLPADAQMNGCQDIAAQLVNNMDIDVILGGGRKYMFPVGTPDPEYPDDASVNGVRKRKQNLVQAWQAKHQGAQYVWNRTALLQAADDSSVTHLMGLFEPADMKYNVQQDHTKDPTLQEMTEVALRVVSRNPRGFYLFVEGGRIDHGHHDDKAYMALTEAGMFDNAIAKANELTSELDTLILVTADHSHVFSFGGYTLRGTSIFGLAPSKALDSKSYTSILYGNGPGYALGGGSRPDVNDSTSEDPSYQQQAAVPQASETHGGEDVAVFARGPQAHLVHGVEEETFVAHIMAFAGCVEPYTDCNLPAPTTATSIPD

Compound: CC1(C)C(/C=C/C2=C3Oc4cc(OP(=O)(O)O)c(Cl)cc4C=C3CCC2)=[N+](CCCNC(=O)[C@@H](Cc2ccccc2)NC(=O)[C@@H](Cc2ccccc2)NC(=O)CCC(=O)[O][Pt]([NH2])([NH2])([OH])([Cl])[Cl])c2ccccc21 [P-CyPt]
- normalized FL of cell pellets (Fig. 3c) ([1]; Group I: HeLa, P-CyPt 10 μM): 0.6736
- normalized FL of cell pellets (Fig. 3c) ([1]; Group II: HeLa, P-CyPt 10 μM, then blank medium 3 h): 1
- normalized FL of cell pellets (Fig. 3c) ([1]; Group III: HeLa preincubated with Na3VO4 (10 mM, 20 min), then P-CyPt 10 μM): 0.2415
- decrease of PA signal at 750 nm in cell pellets [1, 7]: ~ 3.5 fold
- increase of NIR FL in cell pellets [1, 7]: ~ 1.5 fold
- 1/v, single samples (sample-1 to sample-3) ([2]; 1/S [μM] 0.2): 7.131 min/µM and 6.758 min/µM and 6.78 min/µM
- 1/v, mean ([2]; 1/S [μM] 0.2): 6.889 min/µM
- 1/v, single samples (sample-1 to sample-3) ([2]; 1/S [μM] 0.25): 8.023 min/µM and 8.58 min/µM and 6.977 min/µM
- 1/v, mean ([2]; 1/S [μM] 0.25): 7.860 min/µM
- 1/v, single samples (sample-1 to sample-3) ([2]; 1/S [μM] 0.333333): 10.0959 min/µM and 10.7285 min/µM and 10.3072 min/µM
- 1/v, mean ([2]; 1/S [μM] 0.333333): 10.377 min/µM
- 1/v, single samples (sample-1 to sample-3) ([2]; 1/S [μM] 0.5): 12.1342 min/µM and 13.921 min/µM and 15.7076 min/µM
- 1/v, mean ([2]; 1/S [μM] 0.5): 13.921 min/µM
- 1/v, single samples (sample-1 to sample-3) ([2]; 1/S [μM] 1): 22.8038 min/µM and 25.6597 min/µM and 28.5158 min/µM
- 1/v, mean ([2]; 1/S [μM] 1): 25.660 min/µM
- 1/v, single samples (sample-1 to sample-3) ([2]; 1/S [μM] 2): 49.1562 min/µM and 54.4739 min/µM and 57.4911 min/µM
- 1/v, mean ([2]; 1/S [μM] 2): 53.707 min/µM
- normalized Abs. at 700 nm (Fig. 2j) ([3]; 0 min): 0.03754
- normalized Abs. at 750 nm (Fig. 2j) ([3]; 0 min): 0.01756
- normalized FL intensity at 710 nm (Fig. 2k) ([3]; 0 min): 0.979
- normalized PA intensity at 700 nm (Fig. 2l) ([3]; 0 min): 0.1461
- normalized PA intensity at 750 nm (Fig. 2l) ([3]; 0 min): 0.1527
- normalized Abs. at 700 nm (Fig. 2j) ([3]; 5 min): 0.6947
- normalized Abs. at 750 nm (Fig. 2j) ([3]; 5 min): 0.2821
- normalized FL intensity at 710 nm (Fig. 2k) ([3]; 5 min): 5.873
- normalized PA intensity at 700 nm (Fig. 2l) ([3]; 5 min): 0.4821
- normalized PA intensity at 750 nm (Fig. 2l) ([3]; 5 min): 0.3333
- normalized Abs. at 700 nm (Fig. 2j) ([3]; 10 min): 0.8107
- normalized Abs. at 750 nm (Fig. 2j) ([3]; 10 min): 0.4361
- normalized FL intensity at 710 nm (Fig. 2k) ([3]; 10 min): 6.541
- normalized PA intensity at 700 nm (Fig. 2l) ([3]; 10 min): 0.5922
- normalized PA intensity at 750 nm (Fig. 2l) ([3]; 10 min): 0.5187
- normalized Abs. at 700 nm (Fig. 2j) ([3]; 15 min): 0.8996
- normalized Abs. at 750 nm (Fig. 2j) ([3]; 15 min): 0.6102
- normalized FL intensity at 710 nm (Fig. 2k) ([3]; 15 min): 6.902
- normalized PA intensity at 700 nm (Fig. 2l) ([3]; 15 min): 0.7009
- normalized PA intensity at 750 nm (Fig. 2l) ([3]; 15 min): 0.788
- normalized Abs. at 700 nm (Fig. 2j) ([3]; 20 min): 0.9422
- normalized Abs. at 750 nm (Fig. 2j) ([3]; 20 min): 0.6514
- normalized FL intensity at 710 nm (Fig. 2k) ([3]; 20 min): 7.672
- normalized PA intensity at 700 nm (Fig. 2l) ([3]; 20 min): 0.8542
- normalized PA intensity at 750 nm (Fig. 2l) ([3]; 20 min): 0.9373
- normalized Abs. at 700 nm (Fig. 2j) ([3]; 30 min): 0.996
- normalized Abs. at 750 nm (Fig. 2j) ([3]; 30 min): 0.688
- normalized FL intensity at 710 nm (Fig. 2k) ([3]; 30 min): 7.9669
- normalized PA intensity at 700 nm (Fig. 2l) ([3]; 30 min): 0.9524
- normalized PA intensity at 750 nm (Fig. 2l) ([3]; 30 min): 1.0015
- NIR FL at 710 nm switched on ([3]; ALP 100 U/L, after 30 min): ~ 8 fold
- increase of PA signal at 700 nm ([3]; ALP 100 U/L, after 30 min): more than sixfold
- increase of PA signal at 750 nm ([3]; ALP 100 U/L, after 30 min): more than sixfold
- quantified FL intensity of HepG2/Luc liver tumors (Fig. 5b) ([4]; 2 h): 9.80E+08
- quantified FL intensity of HepG2/Luc liver tumors (Fig. 5b) ([4]; 4 h): 8.66E+08
- quantified FL intensity of HepG2/Luc liver tumors (Fig. 5b) ([4]; 8 h): 3.61E+08
- quantified FL intensity of HepG2/Luc liver tumors (Fig. 5b) ([4]; i.v. 100 μM, 200 μL, 1 h): 1.05E+09
- size of s.c. HeLa tumors still detected by NIR FL imaging [5]: 3.8 ± 0.8 mm^3
- normalized Abs. at 700 nm (Fig. 2j) [6, 8]: 1.037
- normalized Abs. at 750 nm (Fig. 2j) [6, 8]: 0.6059
- normalized FL intensity at 710 nm (Fig. 2k) [6, 8]: 15.4414
- normalized PA intensity at 700 nm (Fig. 2l) [6, 8]: 0.9827
- normalized PA intensity at 750 nm (Fig. 2l) [6, 8]: 0.8167
- normalized Abs. at 700 nm (Fig. 2j) [6, 9]: 1.054
- normalized Abs. at 750 nm (Fig. 2j) [6, 9]: 0.4238
- normalized FL intensity at 710 nm (Fig. 2k) [6, 9]: 19.7308
- normalized PA intensity at 700 nm (Fig. 2l) [6, 9]: 0.9792
- normalized PA intensity at 750 nm (Fig. 2l) [6, 9]: 0.6967
- normalized Abs. at 700 nm (Fig. 2j) [6, 10]: 1.062
- normalized Abs. at 750 nm (Fig. 2j) [6, 10]: 0.3077
- normalized FL intensity at 710 nm (Fig. 2k) [6, 10]: 25.1768
- normalized PA intensity at 700 nm (Fig. 2l) [6, 10]: 0.9821
- normalized PA intensity at 750 nm (Fig. 2l) [6, 10]: 0.5167
- normalized Abs. at 700 nm (Fig. 2j) [6, 11]: 1.0719
- normalized Abs. at 750 nm (Fig. 2j) [6, 11]: 0.2002
- normalized FL intensity at 710 nm (Fig. 2k) [6, 11]: 29.4155
- normalized PA intensity at 700 nm (Fig. 2l) [6, 11]: 0.9744
- normalized PA intensity at 750 nm (Fig. 2l) [6, 11]: 0.3617
- normalized Abs. at 700 nm (Fig. 2j) [6, 12]: 1.0764
- normalized Abs. at 750 nm (Fig. 2j) [6, 12]: 0.1155
- normalized FL intensity at 710 nm (Fig. 2k) [6, 12]: 34.4707
- normalized PA intensity at 700 nm (Fig. 2l) [6, 12]: 0.9821
- normalized PA intensity at 750 nm (Fig. 2l) [6, 12]: 0.2567
- normalized Abs. at 700 nm (Fig. 2j) [6, 13]: 1.084
- normalized Abs. at 750 nm (Fig. 2j) [6, 13]: 0.09482
- normalized FL intensity at 710 nm (Fig. 2k) [6, 13]: 35.3761
- normalized PA intensity at 700 nm (Fig. 2l) [6, 13]: 1.001
- normalized PA intensity at 750 nm (Fig. 2l) [6, 13]: 0.1807
